Measurements taken from patent publication US5480905A, “Benzodioxane derivatives” (Chugai Seiyaku Kabushiki Kaisha, priority 1991, dated 1996).
Where a name gives a salt, the structure may show the parent alone.

Legend:
S.D. line male rats [1] = assay: Antidepressant effect, compelled swim test (Porsolt), time over which rats remain motionless; assay type: in vivo, rat; set-up: Antidepressant effect / Antidepressant effect, longevity: scale not given here; details: for inhibition in vivo at 20 mg/kg: Rattus norvegicus, po, 0.5 h, 30 min before swim, read-out: Antidepressant effect, Efficacy
Procedure: An antidepression test was conducted in accordance with the method of Porsolt et al. (Europ. J. Pharmacol., 47, 379-391, 1978). Stated more specifically, 7-wk old S.D. line male rats were placed in a glass cylinder (18 cm^.phi. ×40 cm^H) for 15 min. The cylinder was filled with water (25° C.) to a depth of 15 cm. Thereafter, the rats were placed in a hot environment (32° C.) for 15 min before they were returned to the cage. Twenty-four hours later, the rats were compelled again to swim in the same cylinder for 5 min and the total time over which the rats remained motionless was measured. A test drug was administered perorally to each animal 30 min before it was compelled to swim for 5 min. Antidepressant agents are known to be capable of specifically reducing the time over which the rats would remain motionless (Psyehopharmaeol., 83, 1-16, 1984, and ibid., 94, 147-160, 1988). The antidepressant effect was calculated by the following formula: [formula]
(§1) The procedure of Test Examples 2 and 3 were repeated except that test compounds were administered perorally in a dose of 10 mg/kg.
(§2) The procedures of Test Example 2 and 3 were repeated, except that test compounds were administered perorally in a dose of 20 mg/kg to check the longevity of their antianxiety and antidepressant effects for 0.5, 2 and 4 h.

S.D. line male rats [2] = assay: Antianxiety effect, water drinking under punishment (Vogel); assay type: in vivo, rat; set-up: Antianxiety effect / Antianxiety effect, longevity: unit not given here; details: for change in vivo at 20 mg/kg: Rattus norvegicus, po, read-out: Antianxiety effect, Efficacy
Procedure: Antianxiety test was conducted in accordance with a method adapted from the method of Vogel et al. (Psychopharmacol., 21, 1-7, 1971). Stated more specifically, S.D. line male rats weighing 250-300 g were entirely kept from water for 24 h and then placed in a concrete experimental box. […] The bottom of the box was made of a stainless steel grid, from which electric shock (0.2 mA, 0.5 sec) could be applied to the limbs of rats. The test schedule was as follows: first, the rats were acclimatized to the experimental box and trained for drinking water; this was done for 3 min without electric shock. The quantity of water drunk by the rats was then measured (under non-punishment). Then, the rats were kept from drinking water for 24 h. Thereafter, the quantity of water drunk by each rat was measured (before administration of test compound) under such conditions that an electric shock was applied each time a rat drank one water drop (under punishment).Thirty minutes later, a test drug was administered perorally and after an additional 20 min, the quantity of water drunk by each rat was again measured under punishment (after administration of test compound). The quantity of water drunk by rats will decrease under punishment but it is known that the initial level can be restored by administering an antianxiety agent.
The antianxiety effect of a test compound was calculated by the following formula: [formula]
as §1, §2

[3] = test system: apomorphine induced stereotypic behavior; assay: Antidopamine action, apomorphine induced stereotypic behavior; assay type: in vivo, rat; details: for Apomorphine Induced Stereotypic Behavior, sum of scores: maximum of 24
Procedure: Seven-week old male S.D. line rats were administered a test drug perorally and after the passage of 30 min, the dopamine agonist apomorphine was injected subcutaneously in an amount of 0.5 mg/kg. For the subsequent 5-30 min period, the intensity of stereotypic behavior that was induced in the rats by apomorphine was measured six times at 5-min intervals by a scoring method and the sum of the scores was determined (for a maximum of 24).

serotonin 1A receptor = target: T1, serotonin 1A receptor (Rattus norvegicus, UniProt P19327); assay: Serotonin 1A receptor binding experiment (3H-8-OH-DPAT); details: rat cortex and hippocampal tissue; 0.5 nM 3H-8-OH-DPAT; IC50 in M; read-out: -logIC50 5-HT1A (converted)
T1 construct: the cortex and hippocampal tissue were extracted from the brain; from tissue; host or cells: brain cortex and hippocampus of 7-week-old male S.D. rats, washed membrane homogenate
T1 sequence (P19327 1-422): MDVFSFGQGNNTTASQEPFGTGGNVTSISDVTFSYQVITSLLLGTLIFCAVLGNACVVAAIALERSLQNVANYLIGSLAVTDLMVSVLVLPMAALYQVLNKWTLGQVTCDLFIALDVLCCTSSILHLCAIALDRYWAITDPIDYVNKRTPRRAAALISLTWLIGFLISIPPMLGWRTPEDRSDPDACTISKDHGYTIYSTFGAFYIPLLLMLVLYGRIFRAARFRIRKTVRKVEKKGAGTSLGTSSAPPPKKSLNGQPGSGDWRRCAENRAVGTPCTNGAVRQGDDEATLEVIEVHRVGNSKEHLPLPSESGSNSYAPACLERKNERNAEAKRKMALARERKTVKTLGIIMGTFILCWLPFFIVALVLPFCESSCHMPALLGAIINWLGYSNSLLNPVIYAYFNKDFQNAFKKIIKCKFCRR
Procedure: (§3) Affinity for intracerebral serotonin 1A and serotonin 2 receptor was checked in accordance with the method of Hall et al. (J. Neurochem., 44, 1685-1695, 1985) and the method of Leysen et al. (Mol. Pharmacol., 21, 301-314, 1982).
(§4) Stated more specifically, the cortex and hippocampal tissue were extracted from the brain of 7-wk old S.D. line male rats, mixed with 20 volumes of Tris-HCl buffer (50 mM, pH 7.7) and homogenized with a Teflon homogenizer. Thereafter, the homogenate was centrifuged at 39800×g for 20 min and the supernatant was discarded. Forty volumes of a buffer were added to the precipitate and the mixture was homogenized with a Polytron homogenizer, with the homogenate being centrifuged under the same condition as set forth above. The same procedure was repeated two more times and the final precipitate was homogenized with 40 volumes of a buffer; thereafter, the homogenate was stored at least overnight at -80° C. On the day when binding experiments were to be conducted, the homogenate was thawed at room temperature and incubated at 37° C. for 20 min to remove the endogenous serotonin.
(§5) Thereafter, centrifugation was conducted at 39800×g for 20 min and 40 volumes of a buffer were added to the precipitate, followed by homogenization. This procedure was repeated three times; to the final precipitate, a buffer was added in 65 volumes for the case of serotonin 1A receptor and in 80 volumes for the case of serotonin 2 receptor and the mixture was homogenized in preparation for the binding experiments that are described below. All procedures of experimentation except storage in a frozen state and thawing at room temperature were conducted at 4° C. or below.
A reaction solution containing 0.5 nM (final concentration) of 3H-8-hydroxy-2-(di-n-propylamino)tetralin (8-OH-DPAT), […] and 500 μl of brain homogenate in 1.0 ml (final volume) of a buffer was incubated at 25° C. for 30 min. Thereafter, the reaction solution was filtered by rapid passage through a glass filler. The filter was washed rapidly with an ice-cooled buffer (3 ml) three times, put into a scintillation vial together with a scintillation cocktail, and left to stand overnight at 4° C. On the next day, the vial was agitated well and measurements were conducted with a scintillation counter. To determine the amount of specific binding, the amount of binding in the presence of excess unlabeled serotonin (10 μM) was subtracted from the total amount of binding. As an index for the affinity of a test compound for either receptor, the concentration at which the specific binding of ^3 H-DPAT was inhibited by 50% (IC50, M) was determined using computer software EBDA/LIGAND (Biosoft).

serotonin 2 receptor = target: T2, serotonin 2 receptor (Rattus norvegicus, UniProt P14842); assay: Serotonin 2 receptor binding experiment (3H-ketancerine); details: rat cortex and hippocampal tissue; 0.5 nM 3H-ketancerine; IC50 in M; read-out: -logIC50 5-HT2 (converted)
T2 construct: the cortex and hippocampal tissue were extracted from the brain; from tissue; host or cells: brain cortex and hippocampus of 7-week-old male S.D. rats, washed membrane homogenate
T2 sequence (P14842 whole entry): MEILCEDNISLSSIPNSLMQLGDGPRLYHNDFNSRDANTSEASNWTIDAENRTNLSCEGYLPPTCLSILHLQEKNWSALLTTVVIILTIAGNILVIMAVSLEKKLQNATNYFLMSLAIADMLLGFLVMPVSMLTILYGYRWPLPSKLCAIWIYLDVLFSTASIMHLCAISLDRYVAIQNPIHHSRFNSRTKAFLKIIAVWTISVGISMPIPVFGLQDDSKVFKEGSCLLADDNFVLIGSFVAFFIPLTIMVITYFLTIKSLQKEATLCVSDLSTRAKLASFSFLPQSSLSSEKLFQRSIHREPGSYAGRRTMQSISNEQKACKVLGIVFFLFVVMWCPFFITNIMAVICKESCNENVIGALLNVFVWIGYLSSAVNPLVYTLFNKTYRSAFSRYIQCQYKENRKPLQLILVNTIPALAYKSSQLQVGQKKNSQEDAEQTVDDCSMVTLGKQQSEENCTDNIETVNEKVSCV
Procedure: as §3, §4, §5
A reaction solution containing 0.5 nM (final concentration) of ^3 H-ketancerine and 500 μl of brain homogenate in 1.0 ml (final volume) of a buffer was incubated at 30° C. for 30 min. Subsequent procedures were the same as in the serotonin 1A receptor binding experiment and IC50 (M) was determined accordingly. To determine the amount of specific binding, the amount of binding in the presence of excess unlabelled methysergide ([…]) was subtracted from the total amount of binding.

[4] = peroral 20 mg/kg, 0.5 h after administration
[5] = peroral 20 mg/kg, 2.0 h after administration
[6] = peroral 20 mg/kg, 4.0 h after administration

Compound | inhibition in vivo at 20 mg/kg (S.D. line male rats [1]; peroral 20 mg/kg) [%] | change in vivo at 20 mg/kg (S.D. line male rats [2]; peroral 20 mg/kg) [%] | Apomorphine Induced Stereotypic Behavior, sum of scores ([3]; 10 mg/kg peroral, control 14.4 ± 0.9) | Apomorphine Induced Stereotypic Behavior, sum of scores ([3]; 20 mg/kg peroral, control 14.4 ± 0.9 (Comp. 1: 16.0 ± 1.1)) | Apomorphine Induced Stereotypic Behavior, sum of scores ([3]; 40 mg/kg peroral, control 14.4 ± 0.9) | Antidopamine action ([3]; peroral, apomorphine 0.5 mg/kg s.c.) | IC50 (serotonin 1A receptor) [nM] | IC50 (serotonin 2 receptor) [nM] | Antidepressant effect (S.D. line male rats [1]; peroral 20 mg/kg) | Antianxiety effect (S.D. line male rats [2]; peroral 20 mg/kg) | Antidepressant effect (S.D. line male rats [1]; peroral 10 mg/kg) | Antidepressant effect, longevity (S.D. line male rats [1]; [4]) | Antidepressant effect, longevity (S.D. line male rats [1]; [5]) | Antidepressant effect, longevity (S.D. line male rats [1]; [6]) | Antianxiety effect (S.D. line male rats [2]; peroral 10 mg/kg) | Antianxiety and antidepressant effects (S.D. line male rats [2]; peroral 10 mg/kg, Table 6) | Antianxiety effect, longevity (S.D. line male rats [2]; [4]) | Antianxiety effect, longevity (S.D. line male rats [2]; [5]) | Antianxiety effect, longevity (S.D. line male rats [2]; [6])
O=C1CC2(CCCC2)CC(=O)N1CCCCN1CCN(c2ncccn2)CC1 [Buspirone] | -25.2 ± 3.9 | 37.5 ± 4.7 | 10.3 | 0.7 | 0.2 | stereotypic behavior induced by apomorphine was intensely compelled | – | – | – | – | – | – | – | – | – | – | – | – | –
O=C(NCCNCC1COc2ccc(Cl)cc2O1)C12CC3CC(CC(C3)C1)C2 (centres unmarked) [Compound 4, N-{[2-(7-chloro-1,4-benzodioxan-2ylmethyl)amino]ethyl}tricyclo[3,3,1,1^3, ^7]decane-1-carboxyamide] | 51.9 ± 8.2 | 76.8 ± 13.7 | – | – | – | – | 5.13 | 42.7 | almost comparable effects to WY-50324 | comparable effects to MDL-73005 | – | – | – | – | – | – | – | – | –
O=C(NCCNCC1COc2ccccc2O1)C12CC3CC(CC(C3)C1)C2 (centres unmarked) [Compound 2, N-{[2-(1,4-benzodioxan-2-ylmethyl)amino]ethyl}tricyclo[3,3,1,1^3, ^7]decane-1-carboxyamide] | 85 ± 8.5 | 39.3 ± 10.8 | – | – | – | – | 302 | 35.5 | better antidepressant effects than WY-50324 | almost comparable effects to WY-50324 | – | – | – | – | – | – | – | – | –
O=C(NCCNCC1COc2cccc(O)c2O1)C12CC3CC(CC(C3)C1)C2 (centres unmarked) [Compound 18, N-{[2-(8-hydroxy-1,4-benzodioxan-2ylmethyl)amino]ethyl}tricyclo[^3,3,1,1^3, ^7]decane-1-carboxyamide] | 78.5 ± 4.5 | 80.1 ± 6.1 | – | – | – | – | 0.158 | 50.1 | better antidepressant effects than WY-50324 | better effects than MDL-73005 | – | – | – | – | – | – | – | – | –
Cc1cccc2c1OC(CNCCNC(=O)C13CC4CC(CC(C4)C1)C3)CO2 (single isomer, unassigned; (-)) [Compound 7, (-)-N-{[2-(8-methyl-1,4-benzodioxan-2ylmethyl)amino]ethyl}tricyclo[3,3,1^3, ^7]decane-1carboxyamide hydrochloride] | – | – | – | – | – | – | 0.316 | 15.8 | – | – | 62.7 ± 12.4 | 72.1 | 76.9 | 38.1 | 45.4 ± 3.4 | superiority | 66.0 | 51.6 | 26.1
